# Literature values as cited in PMC7533793 (Cancer, 2009).
# Read-outs that look alike come from different tables or passages of the source.
# System: in-transit extremity melanoma
# Details: for CR rate, isolated limb infusion: Sydney Melanoma Unit study
# [1] = previously published experience of the authors, without ADH-1
structure (smiles),measurement,setting,value
"N[C@@H](Cc1ccc(N(CCCl)CCCl)cc1)C(=O)O [melphalan, L-phenylalanine mustard]","CR rate, isolated limb infusion","n = 60, M. D. Anderson stage IIIab (AJCC stage IIIC)",33%
same,"CR rate, isolated limb infusion","n = 74, M. D. Anderson stage IIIa (AJCC stage IIIB)",43%
same,"CR rate, isolated limb infusion with LPAM",[1],30%
same,"PD rate, isolated limb infusion with LPAM",[1],48%
same,"PR rate, isolated limb infusion with LPAM",[1],7%
